The source of these data is patent US11945812B2, “Annulated 2-amino-3-cyano thiophenes and derivatives for the treatment of cancer” (Boehringer Ingelheim International GmbH, priority 2020, dated 2024).

pIC50: −log10 of the molar value.

T1 sequence (P01116 1-169 isoform P01116-2 G12C/C51S/C80L/C118S): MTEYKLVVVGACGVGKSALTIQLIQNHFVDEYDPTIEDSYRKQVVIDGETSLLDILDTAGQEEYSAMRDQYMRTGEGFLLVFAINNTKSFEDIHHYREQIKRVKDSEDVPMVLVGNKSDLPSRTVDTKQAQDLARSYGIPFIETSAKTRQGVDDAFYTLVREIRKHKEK
Chain of Ba/F3 cells bearing a KRAS G12C mutation (P01116 whole entry G12C): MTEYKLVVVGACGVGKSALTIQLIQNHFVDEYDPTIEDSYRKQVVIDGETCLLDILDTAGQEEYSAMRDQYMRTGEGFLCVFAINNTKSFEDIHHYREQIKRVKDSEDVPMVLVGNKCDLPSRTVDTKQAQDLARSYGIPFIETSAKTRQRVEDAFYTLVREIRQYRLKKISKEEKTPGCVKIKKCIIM

One series has as its target T1, KRAS G12C::SOS1 protein-protein interaction (Homo sapiens, UniProt P01116, C118S/C51S/C80L/G12C).
T1 construct: His6 (N); host or cells: E. coli
Description: KRAS::SOS1 AlphaScreen binding assay. Conditions: KRAS G12C::SOS1 AlphaScreen. From the text: KRAS::SOS1 AlphaScreen Binding Assay
Reagents: • GST-tagged SOS1 (564_1049_GST_TEV_ECO) produced in-house • GST-TEV-SOS1 (564-1049) is purchased from Viva Biotech Ltd. • The expression construct of KRAS G12C (amino acids 1-169 of reference sequence P01116-2 (uniprot), with additional mutations: C51S, C80L, and C118S) containing a C-terminal avi-tag was obtained by gene synthesis (GeneArt, Thermo Fisher) in donor vector (pDONR-221) and transferred by recombinant cloning into pDEST17 vector bearing an N-terminal His6-tag. The protein was expressed in E. coli and the purified protein was biotinylated with the E. coli biotin ligase (BirA) before usage. • GDP (Sigma Cat No G7127) • AlphaLISA Glutathione Acceptor Beads (PerkinElmer, Cat No AL109) • AlphaScreen Streptavidin Donor Beads (PerkinElmer Cat No 6760002) • Assay plates: Proxiplate-384 PLUS, white (PerkinElmer, Cat No 6008289)
Assay Buffer: • 1×PBS • 0.1% BSA • 0.05% Tween 20
7.5 nM (final assay concentration) KRAS G12C, 10 μM (final assay concentration) GDP and 5 nM (final assay concentration) GST-SOS1 are mixed in assay buffer prior to use and kept at room temperature.
AlphaLISA Glutathione Acceptor Beads and AlphaScreen Streptavidin Donor Beads are mixed in assay buffer at a concentration of 10 μg/mL (final assay concentration) each prior to use and kept at room temperature.
Compounds are diluted to a final start concentration of 100 μM and are tested in duplicate. Assay-ready plates (ARPs) are generated using an Access Labcyte Workstation with a Labcyte Echo 550 or 555 accoustic dispenser. For compound a start concentration of 100 μM, 150 nL of compound solution is transferred per well in 11 concentrations in duplicate with serial 1:5 dilutions.
The assay is run using a fully automated robotic system in a darkened room below 100 Lux. 10 μL of KRAS::SOS1 GDP mix is added into columns 1-24 to the 150 nL of compound solution (final dilution in the assay 1:100, final DMSO concentration 1%).
After 30 minutes incubation time 5 μL of bead mix is added into columns 1-23. Plates are kept at room temperature in a darkened incubator. After further 60 minutes incubation, the signal is measured using a PerkinElmer Envision HTS Multilabel Reader using the AlphaScreen specifications from PerkinElmer. Each plate contains the following controls: • diluted DMSO+KRAS::SOS1 GDP mix+bead mix • diluted DMSO+KRAS::SOS1 GDP mix
IC50 values are calculated and analyzed using a 4 parametric logistic model.
Tables of example compounds disclosed herein contain IC50 values determined using the above assay.
With `COC/C=C/C(=O)N1CCN(c2cc(O[C@@H](C)[C@@H]3CCCN3C)nc(-c3cc(C4(C)CCCc5sc(N)c(C#N)c54)on3)n2)CC1` (some centres unmarked) [Ib-15], the pIC50 is 7.77.

As for `COC/C=C/C(=O)N1CCN(c2cc(O[C@@H](C)[C@@H]3CCCN3C)nc(-c3cc([C@@]4(C)CCCc5sc(N)c(C#N)c54)on3)n2)CC12CC2` [Ib-16], the pIC50 was 7.38.

Compound `C=CC(=O)N1CCC(Oc2cc(O[C@@H](C)[C@@H]3CCCN3C)nc(-c3cc([C@@]4(C)CCCc5sc(N)c(C#N)c54)no3)n2)CC1` [Ic-6] had a pIC50 of 8.80.

On to `C=CC(=O)N1CCN(c2cc(-c3cc([C@@]4(C)CCCc5sc(N)c(C#N)c54)sn3)nc(O[C@@H](C)[C@@H]3CCCN3C)n2)CC1` [Id-3], for which the pIC50 was 8.77.

A further series has as its target Ba/F3 cells bearing a KRAS G12C mutation (Homo sapiens, UniProt P01116, G12C, cells depend on it). Description: Ba/F3 cell model proliferation assay (AlamarBlue, 72 h). Type of series: cell-based. Conditions: Ba/F3 KRAS G12C cells, 72 h, 10% FCS, uncorrected; read-out: IC50 Ba/F3 KRASG12C. As to the method:
Ba/F3 Cell Model Generation and Proliferation Assay
Plasmids containing KRASG12 mutants were obtained from GeneScript. To generate KRASG12-dependent Ba/F3 models, Ba/F3 cells were transduced with retroviruses containing vectors that harbor KRASG12 isoforms. Platinum-E cells (Cell Biolabs) were used for retrovirus packaging. Retrovirus was added to Ba/F3 cells. To ensure infection, 4 μg/mL polybrene was added and cells were spinfected. […] Cells with an infection efficiency of 10% to 20% were further cultivated and puromycin selection with 1 μg/mL was initiated. As a control, parental Ba/F3 cells were used to show selection status. Selection was considered successful when parental Ba/F3 cells cultures died. To evaluate the transforming potential of KRASG12 mutations, the growth medium was no longer supplemented with IL-3. Ba/F3 cells harboring the empty vector were used as a control. Approximately ten days before conducting the experiments, puromycin was left out.
All treatments were performed in technical duplicates. The assay is run using a fully automated robotic system. Treated cells were incubated for 72 h at 37° C. with 5% CO2. AlamarBlue™ (ThermoFisher), a viability stain, was added and fluorescence measured in the PerkinElmer Envision HTS Multilabel Reader.
For `COC/C=C/C(=O)N1CCN(c2cc(O[C@@H](C)[C@@H]3CCCN3C)nc(-c3cc(C4(C)CCCc5sc(N)c(C#N)c54)on3)n2)CC1` (some centres unmarked) [Ib-15], the GI50 amounted to 72.4 nM.

`COC/C=C/C(=O)N1CCN(c2cc(O[C@@H](C)[C@@H]3CCCN3C)nc(-c3cc([C@@]4(C)CCCc5sc(N)c(C#N)c54)on3)n2)CC12CC2` [Ib-16]: the GI50 was 124 nM.

`C=CC(=O)N1CCC(Oc2cc(O[C@@H](C)[C@@H]3CCCN3C)nc(-c3cc([C@@]4(C)CCCc5sc(N)c(C#N)c54)no3)n2)CC1` [Ic-6]: the GI50 is 0.7 nM.

In the case of `C=CC(=O)N1CCN(c2cc(-c3cc([C@@]4(C)CCCc5sc(N)c(C#N)c54)sn3)nc(O[C@@H](C)[C@@H]3CCCN3C)n2)CC1` [Id-3], the GI50 was under 1.3 nM.

The same series, now with this note: corrected by plasma protein binding in 10% FCS (fraction unbound); read-out: IC50 Ba/F3 KRASG12C (corrected).
Take `COC/C=C/C(=O)N1CCN(c2cc(O[C@@H](C)[C@@H]3CCCN3C)nc(-c3cc(C4(C)CCCc5sc(N)c(C#N)c54)on3)n2)CC1` (some centres unmarked) [Ib-15]: the GI50 worked out at 13.4 nM.

In the case of `COC/C=C/C(=O)N1CCN(c2cc(O[C@@H](C)[C@@H]3CCCN3C)nc(-c3cc([C@@]4(C)CCCc5sc(N)c(C#N)c54)on3)n2)CC12CC2` [Ib-16], the GI50 came out at 5.45 nM.

Consider `C=CC(=O)N1CCC(Oc2cc(O[C@@H](C)[C@@H]3CCCN3C)nc(-c3cc([C@@]4(C)CCCc5sc(N)c(C#N)c54)no3)n2)CC1` [Ic-6], for which the GI50 worked out at 0.07 nM.

Test system in a further series: not listed separately
Nature of the series: Plasma protein binding (equilibrium dialysis), mouse plasma. The class given is in vitro ADME. Conditions: read-out: PPB mouse fu. As to the method:
(§1) Plasma Protein Binding (PPB)
(§2) Binding of test compound to plasma was determined using equilibrium dialysis (ED) and quantitative mass spectrometry interfaced with liquid chromatography (LC-MS). In brief, ED was performed with dialysis devices consisting of two chambers separated by a semipermeable membrane with a molecular weight cut-off of 5-10 kg/mol. One chamber was filled with commercially sourced plasma (mouse and human plasma, respectively) or serum (10% FCS in PBS) containing 1-10 μmol/L test compound and the other chamber was filled with phosphate-buffer saline (PBS) with or without dextran. The dialysis chamber was incubated for 3-5 hours at 37° C. After incubation, protein was precipitated from aliquots of each chamber and the concentration of test compound in the supernatant of the plasma-containing compartment (cplasma) and of the buffer-containing compartment (Cbuffer) was determined by LC-MS. The fraction of unbound test compound (not bound to plasma) (fu) was calculated according to the following equation: […]
For `COC/C=C/C(=O)N1CCN(c2cc(O[C@@H](C)[C@@H]3CCCN3C)nc(-c3cc(C4(C)CCCc5sc(N)c(C#N)c54)on3)n2)CC1` (some centres unmarked) [Ib-15], the fraction unbound amounted to 0.011.

In the case of `COC/C=C/C(=O)N1CCN(c2cc(O[C@@H](C)[C@@H]3CCCN3C)nc(-c3cc([C@@]4(C)CCCc5sc(N)c(C#N)c54)on3)n2)CC12CC2` [Ib-16], the fraction unbound was 0.002.

As to `C=CC(=O)N1CCC(Oc2cc(O[C@@H](C)[C@@H]3CCCN3C)nc(-c3cc([C@@]4(C)CCCc5sc(N)c(C#N)c54)no3)n2)CC1` [Ic-6], the fraction unbound is under 0.001.

Test system in a further series: not listed separately
Nature of the series: Plasma protein binding (equilibrium dialysis), human plasma. The class given is in vitro ADME. Conditions: read-out: PPB human fu. As to the method:
as §1, §2
For `COC/C=C/C(=O)N1CCN(c2cc(O[C@@H](C)[C@@H]3CCCN3C)nc(-c3cc(C4(C)CCCc5sc(N)c(C#N)c54)on3)n2)CC1` (some centres unmarked) [Ib-15], the fraction unbound came out at 0.041.

On to `COC/C=C/C(=O)N1CCN(c2cc(O[C@@H](C)[C@@H]3CCCN3C)nc(-c3cc([C@@]4(C)CCCc5sc(N)c(C#N)c54)on3)n2)CC12CC2` [Ib-16], for which the fraction unbound amounted to 0.02.

Test system in another series: not listed separately
Description: Plasma protein binding (equilibrium dialysis), serum 10% FCS in PBS. The class given is in vitro ADME. Conditions: bovine, 10% FCS in PBS (serum), read-out: PPB 10% FCS fu. As to the method: as §1, §2
Regarding `COC/C=C/C(=O)N1CCN(c2cc(O[C@@H](C)[C@@H]3CCCN3C)nc(-c3cc(C4(C)CCCc5sc(N)c(C#N)c54)on3)n2)CC1` (some centres unmarked) [Ib-15], the fraction unbound was found to be 0.185.

As for `COC/C=C/C(=O)N1CCN(c2cc(O[C@@H](C)[C@@H]3CCCN3C)nc(-c3cc([C@@]4(C)CCCc5sc(N)c(C#N)c54)on3)n2)CC12CC2` [Ib-16], the fraction unbound worked out at 0.044.

Regarding `C=CC(=O)N1CCC(Oc2cc(O[C@@H](C)[C@@H]3CCCN3C)nc(-c3cc([C@@]4(C)CCCc5sc(N)c(C#N)c54)no3)n2)CC1` [Ic-6], the fraction unbound was 0.093.

The next series relates to ERK phosphorylation in NCI-H358_Cas9_SOS2. Nature of the series: ERK phosphorylation assay 2 (AlphaLISA SureFire Ultra p-ERK1/2), SOS2 knock-out. The class given is cell-based. The note with it: Homo sapiens, NCI-H358; assay 2 (marked with *); read-out: IC50 H358 pERK. From the text:
ERK Phosphorylation Assay
Materials Used for the Assay;
Turning to `COC/C=C/C(=O)N1CCN(c2cc(O[C@@H](C)[C@@H]3CCCN3C)nc(-c3cc(C4(C)CCCc5sc(N)c(C#N)c54)on3)n2)CC1` (some centres unmarked) [Ib-15], the pIC50 was 7.49.

On to `COC/C=C/C(=O)N1CCN(c2cc(O[C@@H](C)[C@@H]3CCCN3C)nc(-c3cc([C@@]4(C)CCCc5sc(N)c(C#N)c54)on3)n2)CC12CC2` [Ib-16], for which the pIC50 is 6.01.

With `C=CC(=O)N1CCC(Oc2cc(O[C@@H](C)[C@@H]3CCCN3C)nc(-c3cc([C@@]4(C)CCCc5sc(N)c(C#N)c54)no3)n2)CC1` [Ic-6], the pIC50 is 9.30.

Turning to `C=CC(=O)N1CCN(c2cc(-c3cc([C@@]4(C)CCCc5sc(N)c(C#N)c54)sn3)nc(O[C@@H](C)[C@@H]3CCCN3C)n2)CC1` [Id-3], the pIC50 is 8.96.
